From patent publication US20260317367A1, “SALTS INCLUDING CRYSTALLINE SALTS OF 25-HYDROXY-CHOLEST-5-EN-3-SULFATE AND METHODS FOR PREPARING SAME” (Durect Corporation, priority 2022, published 2026)
Counter-ions that a name gives are not always drawn.

What was measured:
[1] = Humidity / water activity stability of crystalline 25HC3S sodium forms; assay type: physicochemical
[2] = system: lipid biosynthesis; details: shown previously; cited from earlier work
[3] = system: cholesterol secretion and degradation; details: shown previously; cited from earlier work
[4] = Dynamic vapor sorption (DVS), hygroscopicity; assay type: physicochemical; details: DVS
Text: Dynamic vapor sorption (DVS) measures the uptake of a vapor (typically water) by a sample when exposed to a changing relative humidity. The loss of water can also be measured as relative humidity is decreased. Hygroscopic materials tend to absorb water more readily than non-hygroscopic. In some cases, hydrates absorb water to create higher-order hydrates (e.g., a monohydrate converting to a dihydrate when exposed to increasingly humid conditions). In some salts of the disclosure, moisture is retained upon exposure in a DVS experiment and little or no weight loss is observed upon heating from room temperature. In such experiments, the hygroscopic nature of the salt under study may indicate the formation of a hydrate from an anhydrate. […] Exemplary methods for collecting DVS data are set forth in Example 26.
Dynamic vapor sorption data was collected on a Surface Measurement System DVS Intrinsic instrument. The samples were not dried prior to analysis. Sorption and desorption data were collected over a range from 5% to 95% RH in 10% RH increments under a nitrogen purge. The equilibrium criteria used for the analyses were 0.001 dm/dt weight change in 5 minutes with a minimum step time of 30 minutes and maximum equilibration time of 180 minutes with a 3 minute data logging interval. Data were not corrected for the initial moisture content of the sample.

## C[C@H](CCCC(C)(C)O)[C@H]1CC[C@H]2[C@@H]3CC=C4C[C@@H](OS(=O)(=O)[O-])CC[C@]4(C)[C@H]3CC[C@]12C.[Na+] [crystalline 25HC3S sodium, Sodium [(3S,10R,13R,17R)-17-[(1R)-5-hydroxy-1,5-dimethyl-hexyl]-10,13-dimethyl-2,3,4,7,8,9,11,12,14,15,16,17-dodecahydro-1H-cyclopenta[a]phenanthren-3-yl]sulfate]
[1]; humid conditions
  Behaviour under humid conditions (in words): stabilizes as a hydrate

## C[C@H](CCCC(C)(C)O)[C@H]1CCC2C3CC=C4C[C@@H](OS(=O)(=O)O)CC[C@]4(C)C3CC[C@@]21C (stereo partly drawn) [Salt 25HC3S, [(3S,10R,13R,17R)-17-[(1R)-5-hydroxy-1,5-dimethyl-hexyl]-10,13-dimethyl-2,3,4,7,8,9,11,12,14,15,16,17-dodecahydro-1H-cyclopenta[a]phenanthren-3-yl]sulfate]
[2]
  Effect on lipid biosynthesis: decreases
[3]
  Effect on cholesterol secretion and degradation: increases

## CC(CCCC(C)(C)O)C1CCC2C3CC=C4CC(OS(=O)(=O)O)CCC4(C)C3CCC12C (centres unmarked) [Form I, reference compound]
[4]
  Hygroscopicity (in words): hygroscopic
[1]; high water activities
  Water activity above which a liquid crystal may form: above 0.73
